Species on record: Rattus norvegicus
Experiment: DrugMatrix - Regimen: Daily Repeat
Type: toxicity, organism-based, Sprague-Dawley
Parameters: regimen Daily Repeat, gender Male, age 6-8 weeks
Conditions: in vivo, po, route oral GAVAGE, […]; for ABSOLUTE BASOPHIL / ABSOLUTE EOSINOPHIL / ABSOLUTE LYMPHOCYTE / ABSOLUTE MONOCYTE / ABSOLUTE SEGMENTED NEUTROPHIL / BASOPHIL / EOSINOPHIL / ERYTHROCYTE COUNT / HEMATOCRIT / HEMOGLOBIN / LEUKOCYTE COUNT / LYMPHOCYTE / MEAN CORPUSCULAR HEMOGLOBIN / MEAN CORPUSCULAR HEMOGLOBIN CONCENTRATION / MEAN CORPUSCULAR VOLUME / MONOCYTE / NEUTROPHIL / NUCLEATED RED BLOOD CELLS / PLATELET COUNT: tissue Blood; for ALANINE AMINOTRANSFERASE / ALBUMIN / ALKALINE PHOSPHATASE / ASPARTATE AMINOTRANSFERASE / BLOOD UREA NITROGEN / CARBON DIOXIDE / CHLORIDE / CHOLESTEROL / CREATINE PHOSPHOKINASE / CREATININE / GLUCOSE / LACTATE DEHYDROGENASE / LIPASE / PHOSPHORUS / SODIUM / TOTAL BILIRUBIN / TOTAL PROTEIN / URIC ACID: tissue Plasma
[1] = 0 mg/kg, 72 h, dose level Control, time 3 day
[2] = 0 mg/kg, 120 h, dose level Control, time 5 day
[3] = 450 mg/kg, 72 h, dose level Low, time 3 day

CC[C@H](C)C(=O)O[C@H]1C[C@@H](C)C=C2C=C[C@H](C)[C@H](CC[C@@H]3C[C@@H](O)CC(=O)O3)[C@H]21 [LOVASTATIN]
ABSOLUTE BASOPHIL [1]: 0 CELLS/uL | ABSOLUTE EOSINOPHIL [1]: 52.33 CELLS/uL | ABSOLUTE LYMPHOCYTE [1]: 9105.33 CELLS/uL | ABSOLUTE MONOCYTE [1]: 155.67 CELLS/uL | ABSOLUTE SEGMENTED NEUTROPHIL [1]: 1020 CELLS/uL | BASOPHIL [1]: 0% | EOSINOPHIL [1]: 0.33% | ERYTHROCYTE COUNT [1]: 5.03 x10E6/uL | HEMATOCRIT [1]: 31.63% | HEMOGLOBIN [1]: 12.37 G/DL | LEUKOCYTE COUNT [1]: 10.33 x10E3/uL | LYMPHOCYTE [1]: 87% | MEAN CORPUSCULAR HEMOGLOBIN [1]: 24.57 pg | MEAN CORPUSCULAR HEMOGLOBIN CONCENTRATION [1]: 39.07 G/DL | MEAN CORPUSCULAR VOLUME [1]: 62.93 fL | MONOCYTE [1]: 1.33% | NEUTROPHIL [1]: 11.33% | NUCLEATED RED BLOOD CELLS [1]: 0 /100WBC | PLATELET COUNT [1]: 896 x10E3/uL | ALANINE AMINOTRANSFERASE [1]: 75.33 u/L | ALBUMIN [1]: 3.77 G/DL | ALKALINE PHOSPHATASE [1]: 378.67 u/L | ASPARTATE AMINOTRANSFERASE [1]: 101.33 u/L | BLOOD UREA NITROGEN [1]: 11.33 mg/dL | CARBON DIOXIDE [1]: 25 mmol/L | CHLORIDE [1]: 99 MEQ/L | CHOLESTEROL [1]: 66 mg/dL | CREATINE PHOSPHOKINASE [1]: 277 u/L | CREATININE [1]: 0.33 mg/dL | GLUCOSE [1]: 198.33 mg/dL | LACTATE DEHYDROGENASE [1]: 140.33 u/L | LIPASE [1]: 11.33 u/L | PHOSPHORUS [1]: 11.83 mg/dL | SODIUM [1]: 141.03 MEQ/L | TOTAL BILIRUBIN [1]: 0.2 mg/dL | TOTAL PROTEIN [1]: 5.47 G/DL | URIC ACID [1]: 0.93 mg/dL | ABSOLUTE BASOPHIL [2]: 0 CELLS/uL | ABSOLUTE EOSINOPHIL [2]: 0 CELLS/uL | ABSOLUTE LYMPHOCYTE [2]: 8734 CELLS/uL | ABSOLUTE MONOCYTE [2]: 98.67 CELLS/uL | ABSOLUTE SEGMENTED NEUTROPHIL [2]: 1034 CELLS/uL | BASOPHIL [2]: 0% | EOSINOPHIL [2]: 0% | ERYTHROCYTE COUNT [2]: 5.19 x10E6/uL | HEMATOCRIT [2]: 33.2% | HEMOGLOBIN [2]: 12.93 G/DL | LEUKOCYTE COUNT [2]: 9.87 x10E3/uL | LYMPHOCYTE [2]: 87% | MEAN CORPUSCULAR HEMOGLOBIN [2]: 25 pg | MEAN CORPUSCULAR HEMOGLOBIN CONCENTRATION [2]: 39.03 G/DL | MEAN CORPUSCULAR VOLUME [2]: 63.93 fL | MONOCYTE [2]: 1% | NEUTROPHIL [2]: 12% | NUCLEATED RED BLOOD CELLS [2]: 0 /100WBC | PLATELET COUNT [2]: 1190 x10E3/uL | ALANINE AMINOTRANSFERASE [2]: 75.67 u/L | ALBUMIN [2]: 4 G/DL | ALKALINE PHOSPHATASE [2]: 384.33 u/L | ASPARTATE AMINOTRANSFERASE [2]: 89.67 u/L | BLOOD UREA NITROGEN [2]: 13 mg/dL | CARBON DIOXIDE [2]: 32.67 mmol/L | CHLORIDE [2]: 103 MEQ/L | CHOLESTEROL [2]: 79.67 mg/dL | CREATINE PHOSPHOKINASE [2]: 199.33 u/L | CREATININE [2]: 0.29 mg/dL | GLUCOSE [2]: 161.33 mg/dL | LACTATE DEHYDROGENASE [2]: 92.33 u/L | LIPASE [2]: 11.67 u/L | PHOSPHORUS [2]: 10.8 mg/dL | SODIUM [2]: 145.3 MEQ/L | TOTAL BILIRUBIN [2]: 0.17 mg/dL | TOTAL PROTEIN [2]: 5.7 G/DL | URIC ACID [2]: 0.63 mg/dL | ABSOLUTE BASOPHIL [3]: 0 CELLS/uL | ABSOLUTE EOSINOPHIL [3]: 0 CELLS/uL | ABSOLUTE LYMPHOCYTE [3]: 6372 CELLS/uL | ABSOLUTE MONOCYTE [3]: 86.67 CELLS/uL | ABSOLUTE SEGMENTED NEUTROPHIL [3]: 1174.67 CELLS/uL | BASOPHIL [3]: 0% | EOSINOPHIL [3]: 0% | ERYTHROCYTE COUNT [3]: 5.39 x10E6/uL | HEMATOCRIT [3]: 33.63% | HEMOGLOBIN [3]: 13.47 G/DL | LEUKOCYTE COUNT [3]: 7.63 x10E3/uL | LYMPHOCYTE [3]: 82.67% | MEAN CORPUSCULAR HEMOGLOBIN [3]: 25 pg | MEAN CORPUSCULAR HEMOGLOBIN CONCENTRATION [3]: 40.07 G/DL | MEAN CORPUSCULAR VOLUME [3]: 62.43 fL | MONOCYTE [3]: 1.33% | NEUTROPHIL [3]: 16% | NUCLEATED RED BLOOD CELLS [3]: 0 /100WBC | PLATELET COUNT [3]: 1202.67 x10E3/uL | ALANINE AMINOTRANSFERASE [3]: 138.33 u/L | ALBUMIN [3]: 4.13 G/DL | ALKALINE PHOSPHATASE [3]: 450.67 u/L | ASPARTATE AMINOTRANSFERASE [3]: 224.33 u/L | BLOOD UREA NITROGEN [3]: 11 mg/dL | CARBON DIOXIDE [3]: 27.67 mmol/L | CHLORIDE [3]: 97.33 MEQ/L | CHOLESTEROL [3]: 35 mg/dL | CREATINE PHOSPHOKINASE [3]: 505 u/L | CREATININE [3]: 0.16 mg/dL | GLUCOSE [3]: 146 mg/dL | LACTATE DEHYDROGENASE [3]: 223.33 u/L | LIPASE [3]: 10.67 u/L | PHOSPHORUS [3]: 10.17 mg/dL | SODIUM [3]: 140.53 MEQ/L | TOTAL BILIRUBIN [3]: 0.1 mg/dL | TOTAL PROTEIN [3]: 5.37 G/DL | URIC ACID [3]: 0.5 mg/dL

Source: ChEMBL document CHEMBL3885881, “DrugMatrix”
